Measurements as given in patent publication US11504368B2, “2,6-diamino-3,4-dihydropyrimidin-4-one derivatives and use thereof in therapy” (THOMAS HELLEDAYS STIFTELSE FÖR MEDICINSK FORSKNING, priority 2018, dated 2022).
Where a name gives a salt, the structure may show the parent alone.

What was measured:
MTHFD2 = MTHFD2 (Homo sapiens (Human), UniProt P13995); assay: Inhibition of MTHFD2 (NAD(P)H-Glo luminescence); format: biochemical; conditions: 3.4 nmol/L MTHFD2, 5 μmol/L folitixorin, 250 μmol/L NAD+; mean of at least 3 independent measurements
Method: DMSO was used as negative control. The serial dilution in DMSO, from compound DMSO stock solution, was created by dispensing from a 384-well low dead volume microplate (LP-0200, Labcyte) and a 384-well polypropylene microplate 2.0 (PP-0200, Labcyte). A total of 2.5 μL MTHFD2 was preincubated with compound or DMSO for 10 min. The enzymatic reaction was initiated by adding 2.5 μL folitixorin (F680350, Toronto Research Chemicals). For background control, 5 μL buffer was added to the well. […] The final concentrations of all reagents in a total assay volume of 5 μL per well were 50 mmol/L Tris-HCl at pH 8.0, 100 mmol/L NaCl, 5 mmol/L MgCl2, 25 mmol/L Na3PO4 at pH 8.0, 0.005% (v/v) Tween-20, and 2 mmol/L 2-mercaptoethanol. After 15 min reaction time, 5 μL NAD(P)H-Glo detection reagent (G9061 or G9062, Promega) was dispensed in all wells and the plate was incubated for 60 min. Luminescence was measured on a plate reader (Envision, PerkinElmer or Sense, Hidex). The light signal produced is proportional to the amount of NAD(P)H in the sample. IC50 values were determined by fitting a four parameter sigmoidal curve model using XLfit (IDBS). Reported IC50 values are the mean of at least 3 independent measurements.

HL-60 cells = assay: Cancer cell viability assay (HL-60, resazurin); format: cell-based; conditions: Homo sapiens, 96 h, mean of at least 3 independent measurements, read-out: HL60 cell proliferation inhibition EC50
Method: HL-60 cells (human promyelocytic leukemia cells) were seeded in a 384-well plate at a density of 2,000 cells per well in 50 μL induction medium and treated with vehicle (DMSO) or an 11-point concentration range with 3-fold dilution in concentration of compound. Each assay point was run in duplicate. Wells without cells but with DMSO were used as negative controls. The cells were left to proliferate over a period of 96 h, in an incubator at 37° C. and 5% CO2, followed by an addition of 10 μL […] resazurin sodium salt (199303, Sigma-Aldrich) dissolved in DPBS (14190, Gibco). After 4 h of incubation at 37° C. and 5% CO2, the fluorescent signal was measured using an excitation wavelength of 544 nm and an emission wavelength of 595 nm in a Hidex Sense plate reader. Cell plates were incubated in boxes with damp paper tissues to avoid evaporation. All additions, except compound and DMSO, were done using the Multidrop Combi (Thermo Fisher Scientific). DMSO and compounds were pre-dispensed with an Echo 550 Liquid handler (Labcyte) in black, clear bottom, TC-treated and sterile 384-well plates (3764, Corning). Growth medium consisted of RPMI 1640 GlutaMAX (61870, Gibco), 10% (v/v) FBS (10500, Gibco), and 1% (v/v) P/S (15070, Gibco). Induction medium consisted of RPMI 1640 GlutaMAX (61870, Gibco), 5% (v/v) FBS (10500, Gibco), and 1% (v/v) P/S (15070, Gibco). EC50 values were determined by fitting a four parameter sigmoidal curve model using XLfit (IDBS). Reported EC50 values are the mean of at least 3 independent measurements.

Sequence of MTHFD2 (P13995 36-350): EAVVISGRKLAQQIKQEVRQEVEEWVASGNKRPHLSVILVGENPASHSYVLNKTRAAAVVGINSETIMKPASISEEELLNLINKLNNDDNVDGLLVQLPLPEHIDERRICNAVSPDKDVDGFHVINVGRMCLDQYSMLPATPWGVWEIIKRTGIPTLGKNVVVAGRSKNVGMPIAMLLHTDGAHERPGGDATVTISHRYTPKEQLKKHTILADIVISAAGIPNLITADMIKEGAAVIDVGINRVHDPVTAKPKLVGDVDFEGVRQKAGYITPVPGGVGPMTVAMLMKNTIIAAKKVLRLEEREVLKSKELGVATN

| Structure (SMILES) | IC50 (MTHFD2) [nM] | EC50 (HL-60 cells) [nM] |
| --- | --- | --- |
| COc1nc(C(=O)N[C@@H](CCC(=O)O)C(=O)O)ccc1NC(=O)Cc1c(N)nc(N)[nH]c1=O [Example 29, (2S)-2-({5-[2-(2,4-diamino-6-oxo-1,6-dihydropyrimidin-5-yl)acetamido]-6-methoxypyridin-2-yl}formamido)pentanedioic acid] | 44 | 1120 |
| CC(C)[C@H](NC(=O)c1ncc(NC(=O)Cc2c(N)nc(N)[nH]c2=O)cc1F)C(=O)O [Example 34, (2S)-2-((5-[2-(2,4-diamino-6-oxo-1,6-dihydropyrimidin-5-yl)acetamido]-3-fluoropyridin-2-yl)formamido)-3-methylbutanoic acid] | 60 | 177 |
| Nc1nc(N)c(CC(=O)Nc2ccc(C(=O)N[C@@H](CCC(=O)N[C@@H](CCC(=O)O)C(=O)O)C(=O)O)nc2)c(=O)[nH]1 [Example 28, (2S)-2-[(4S)-4-carboxy-4-({5-[2-(2,4-diamino-6-oxo-1,6-dihydropyrimidin-5-yl)acetamido]pyridin-2-yl}formamido)butanamido]pentanedioic acid] | 92 | 22 |
| Nc1nc(N)c(NC(=O)Nc2ccc(C(=O)N[C@@H](CCC(=O)N[C@@H](CCC(=O)O)C(=O)O)C(=O)O)nc2)c(=O)[nH]1 [Example 23, (2S)-2-[(4S)-4-carboxy-4-[(5-{[(2,4-diamino-6-oxo-1,6-dihydropyrimidin-5-yl)carbamoyl]amino}pyridin-2-yl)formamido]butanamido]pentanedioic acid] | 43 | 835 |
| Nc1nc(N)c(NC(=O)Nc2ccc(C(=O)N[C@H](C(=O)O)c3ccccc3)nc2)c(=O)[nH]1 [Example 15, (2S)-2-[(5-{[(2,4-diamino-6-oxo-1,6-dihydropyrimidin-5-yl)carbamoyl]amino}pyridin-2-yl)formamido]-2-phenylacetic acid] | 23 | 470 |
| Nc1nc(N)c(NC(=O)Nc2cnc(C(=O)N[C@@H](CCC(=O)O)C(=O)O)c(F)c2)c(=O)[nH]1 [Example 6, (2S)-2-[(5-{[(2,4-diamino-6-oxo-1,6-dihydropyrimidin-5-yl)carbamoyl]amino}-3-fluoropyridin-2-yl)formamido]pentanedioic acid] | 10 | 100 |
| Nc1nc(N)c(CC(=O)Nc2ccc(C(=O)N[C@@H](CCC(=O)O)C(=O)O)nc2)c(=O)[nH]1 [Example 7, (2S)-2-((5-[2-(2,4-diamino-6-oxo-1,6-dihydropyrimidin-5-yl)acetamido]pyridin-2-yl)formamido)pentanedioic acid hydrochloride] | 154 | 17 |
| Nc1nc(N)c(NC(=O)Nc2cnc(C(=O)N[C@@H](CCC(=O)O)C(=O)O)c(Cl)c2)c(=O)[nH]1 [Example 5, (2S)-2-[(3-chloro-5-{[(2,4-diamino-6-oxo-1,6-dihydropyrimidin-5 yl)carbamoyl]amino}pyridin-2-yl)formamido]pentanedioic acid] | 15 | 93 |
| C=Cc1nc(C(=O)N[C@@H](CCC(=O)O)C(=O)O)ccc1NC(=O)Cc1c(N)nc(N)[nH]c1=O [Example 21, (2S)-2-((5-[2-(2,4-diamino-6-oxo-1,6-dihydropyrimidin-5-yl)acetamido]-6-ethenylpyridin-2-yl)formamido)pentanedioic acid] | 298 | 8620 |
| Nc1nc(N)c(CC(=O)Nc2ccc(C(=O)N[C@@H](CCC(=O)O)C(=O)O)nc2Oc2ccccc2)c(=O)[nH]1 [Example 26, (2S)-2-((5-[2-(2,4-diamino-6-oxo-1,6-dihydropyrimidin-5-yl)acetamido]-6-phenoxypyridin-2-yl)formamido)pentanedioic acid] | 14 | 6190 |
| Nc1nc(N)c(NC(=O)Nc2ccc(C(=O)N[C@@H](CCC(=O)O)C(=O)O)nc2OC2CC2)c(=O)[nH]1 [Example 18, (2S)-2-[(6-cyclopropoxy-5-{[(2,4-diamino-6-oxo-1,6-dihydropyrimidin-5-yl)carbamoyl]amino}pyridin-2-yl)formamido]pentanedioic acid] | 3 | 45 |
| Nc1nc(N)c(CC(=O)Nc2cnc(C(=O)N[C@@H](CCC(=O)O)C(=O)O)c(C(F)(F)F)c2)c(=O)[nH]1 [Example 30, (2S)-2-((5-[2-(2,4-diamino-6-oxo-1,6-dihydropyrimidin-5-yl)acetamido]-3-(trifluoromethyl)pyridin-2-yl)formamido)pentanedioic acid] | 1100 | 161 |
| Cc1cc(NC(=O)Cc2c(N)nc(N)[nH]c2=O)cnc1C(=O)N[C@@H](CCC(=O)O)C(=O)O [Example 20, (2S)-2-({5-[2-(2,4-diamino-6-oxo-1,6-dihydropyrimidin-5-yl)acetamido]-3-methylpyridin-2-yl}formamido)pentanedioic acid] | 913 | 34 |
| CC(C)[C@H](NC(=O)c1ccc(NC(=O)Nc2c(N)nc(N)[nH]c2=O)cn1)C(=O)O [Example 3, (2S)-2-[(5-{[(2,4-diamino-6-oxo-1,6-dihydropyrimidin-5-yl)carbamoyl]amino}pyridin-2-yl)formamido]-3-methylbutanoic acid; trifluoroacetic acid] | 19 | 31 |
| Nc1nc(N)c(CC(=O)Nc2cnc(C(=O)N[C@@H](CCC(=O)O)C(=O)O)c(Cl)c2)c(=O)[nH]1 [Example 19, (2S)-2-((3-chloro-5-[2-(2,4-diamino-6-oxo-1,6-dihydropyrimidin-5-yl)acetamido]pyridin-2-yl)formamido)pentanedioic acid] | 72 | 8 |
| Nc1nc(N)c(CC(=O)Nc2ccc(C(=O)N[C@@H](CCc3nnn[nH]3)C(=O)O)nc2)c(=O)[nH]1 [Example 9, (2S)-2-((5-[2-(2,4-diamino-6-oxo-1,6-dihydropyrimidin-5-yl)acetamido]pyridin-2-yl)formamido)-4-(1H-1,2,3,4-tetrazol-5-yl)butanoic acid] | 53 | 35 |
| Nc1nc(N)c(NC(=O)Nc2ccc(C(=O)N[C@@H](CCc3nnn[nH]3)C(=O)O)nc2)c(=O)[nH]1 [Example 4, (2S)-2-[(5-{[(2,4-diamino-6-oxo-1,6-dihydropyrimidin-5-yl)carbamoyl]amino}pyridin-2-yl)formamido]-4-(1H-1,2,3,4-tetrazol-5-yl)butanoic acid] | 12 | 24 |
| Nc1nc(N)c(NC(=O)Nc2ccc(C(=O)N[C@@H](CC3CCCC3)C(=O)O)nc2)c(=O)[nH]1 [Example 11, (2S)-3-cyclopentyl-2-[(5-{[(2,4-diamino-6-oxo-1,6-dihydropyrimidin-5-yl)carbamoyl]amino}pyridin-2-yl)formamido]propanoic acid] | 46 | 37 |
| Nc1nc(N)c(NC(=O)Nc2ccc(C(=O)N[C@@H](CCC(=O)O)C(=O)O)nc2)c(=O)[nH]1 [Example 1, (2S)-2-[(5-{[(2,4-diamino-6-oxo-1,6-dihydropyrimidin-5-yl)carbamoyl]amino}pyridin-2-yl)formamido]pentanedioic acid; trifluoroacetic acid] | 24 | 75 |
| Nc1nc(N)c(NC(=O)Nc2ccc(C(=O)N[C@@H](Cc3ccccc3)C(=O)O)nc2)c(=O)[nH]1 [Example 2, (2S)-2-[(5-{[(2,4-diamino-6-oxo-1,6-dihydropyrimidin-5-yl)carbamoyl]amino}pyridin-2-yl)formamido]-3-phenylpropanoic acid; trifluoroacetic acid] | 68 | 10 |
| Nc1nc(N)c(CC(=O)Nc2ccc(C(=O)N[C@@H](CCC(=O)O)C(=O)O)nc2-c2ccccc2)c(=O)[nH]1 [Example 27, (2S)-2-((5-[2-(2,4-diamino-6-oxo-1,6-dihydropyrimidin-5-yl)acetamido]-6-phenylpyridin-2-yl)formamido)pentanedioic acid] | 65 | 2770 |
